Legend:
Parameters in all cases: species or system Tryporyza intacta
TintPBP2 = TintPBP2 (Scirpophaga excerptalis, UniProt A0A345D2V6); test: Fluorescence competitive binding assay with 1-NPN probe, TintPBP2; settings: for Ki: calculated from IC50, 1-NPN probe; for IC50: displacement of 1-NPN (2 μM), 25 °C; for Binding to TintPBP2 in competitive binding (in words): competitor 0.5–10.0 μM
Description: (§1) To measure the affinities of the sex pheromones to TintPBP1-3 proteins, we used N-Phenyl-1-naphthylamine (1-NPN) as the fluorescent probe on a Hitachi F-4500 at 25 °C based on the method of Mao et al.[17]. 1-NPN was used as the fluorescent reporter (2 μM) and 0.5–10.0 μM for each competitor was used to test fluorescence competitive binding affinities of sex pheromones. Six compounds were selected and measured in competitive binding assays. The dissociation constant for 1-NPN and binding results were analyzed by Prism software. Each of IC50 values (concentrations of ligands halving the initial fluorescence value of 1-NPN) from competitors were calculated using following equation: Ki=[IC50]/1+[1−NPN]/K1−NPN, where [1-NPN] is the free concentration of 1-NPN and K1−NPN is the dissociation constant of the complex protein/1-NPN.

TintPBP3 = TintPBP3 (Scirpophaga excerptalis, UniProt A0A345D2V7); test: Fluorescence competitive binding assay with 1-NPN probe, TintPBP3; settings: for Ki: calculated from IC50, 1-NPN probe; for IC50: displacement of 1-NPN (2 μM), 25 °C; for Binding to TintPBP3 in competitive binding (in words): competitor 0.5–10.0 μM
TintPBP3, sequence (A0A345D2V7 entry or part of it): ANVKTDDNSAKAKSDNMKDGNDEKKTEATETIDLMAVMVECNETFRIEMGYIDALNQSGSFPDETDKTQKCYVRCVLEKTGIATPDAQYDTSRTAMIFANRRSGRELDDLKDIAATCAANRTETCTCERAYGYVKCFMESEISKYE
Description: as §1

TintPBP1 = TintPBP1 (Scirpophaga excerptalis, UniProt A0A345D2V5); test: Fluorescence competitive binding assay with 1-NPN probe, TintPBP1; settings: for Ki: calculated from IC50, 1-NPN probe; for IC50: displacement of 1-NPN (2 μM), 25 °C; for Binding to TintPBP1 in competitive binding (in words): competitor 0.5–10.0 μM
TintPBP1, sequence (A0A345D2V5 entry or part of it): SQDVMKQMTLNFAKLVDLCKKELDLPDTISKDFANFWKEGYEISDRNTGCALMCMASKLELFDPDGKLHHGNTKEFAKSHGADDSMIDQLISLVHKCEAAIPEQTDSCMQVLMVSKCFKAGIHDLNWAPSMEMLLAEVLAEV
Description: as §1

TintPBP2, sequence (A0A345D2V6 entry or part of it): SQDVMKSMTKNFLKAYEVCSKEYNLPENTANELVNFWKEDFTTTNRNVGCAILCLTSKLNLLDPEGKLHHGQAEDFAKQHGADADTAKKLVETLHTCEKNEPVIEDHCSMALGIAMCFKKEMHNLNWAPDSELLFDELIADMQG

SMILES	Ki (TintPBP2)	IC50 (TintPBP2)	Ki (TintPBP3)	IC50 (TintPBP3)	Ki (TintPBP1)	IC50 (TintPBP1)	Binding to TintPBP2 in competitive binding (in words) (TintPBP2)	Binding to TintPBP3 in competitive binding (in words) (TintPBP3)	Binding to TintPBP1 in competitive binding (in words) (TintPBP1)
CCCC/C=C/CCCCCCCCCC=O [E11–16: Ald]	3.58 ± 0.13 µM	4.78 ± 0.17 µM	3.45 ± 0.21 µM	4.08 ± 0.24 µM	2.15 ± 0.16 µM	3.09 ± 0.22 µM			
CCCC/C=C\CCCCCCCCCC=O [Z11–16: Ald]	2.83 ± 0.11 µM	3.81 ± 0.15 µM	3.96 ± 0.28 µM	4.66 ± 0.33 µM	2.95 ± 0.04 µM	4.27 ± 0.05 µM			
CCCC/C=C\CCCCCCCCCCOC(C)=O [Z11–16:AC]							cannot bind	cannot bind	cannot bind
CCCC/C=C\CCCCCCCCCCO [Z11–16:OH]							cannot bind	cannot bind	cannot bind
CCCC/C=C\CCCCCCCCCCCCOC(C)=O [Z13–18:AC]							cannot bind	cannot bind	cannot bind
CCCC/C=C\CCCCCCCCCCCCO [Z13–18:OH]							cannot bind	cannot bind	cannot bind

— paper PMC6050284, “Molecular characterization and functional differentiation of three pheromone-binding proteins from Tryporyza intacta” (Scientific Reports, 2018)
